Consider 24 compounds from PubChem BioAssay AID330 (DTP/NCI, 2004).

Values joined by “and” are separate entries in the source; they are usually repeats but may differ in a detail not shown here. Identical values can stand only once. Toxic doses and inconclusive results are not listed.

The test system of the assay is P388 leukemia ip, CD2F1 mice, survival T/C. Nature of the assay: NCI In Vivo Anticancer Drug Screen. Data for tumor model P388 Leukemia (intraperitoneal) in CD2F1 (CDF1) mice. The following applies: endpoint: median survival time, higher = longer survival. The gist of the method: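 Mice carrying the transplanted tumor received test compound or vehicle. Survival was recorded in each group, and the value is the treated-group measurement divided by that of the vehicle-treated control group.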

The mark [1] stands for this setting: dose: 100.0 mg/kg/injection, schedule: Q04DX003 (ip), vehicle: saline.
Setting [2] is: dose: 200.0 mg/kg/injection, schedule: Q04DX003 (ip), vehicle: saline.
Setting [3] is: dose: 50.0 mg/kg/injection, schedule: Q01DX009 (ip), vehicle: saline with Tween-80.
Setting [4] is: dose: 100.0 mg/kg/injection, schedule: Q01DX009 (ip), vehicle: saline with Tween-80.
[5] abbreviates: dose: 200.0 mg/kg/injection, schedule: Q01DX009 (ip), vehicle: saline with Tween-80.
Setting [6] is: dose: 50.0 mg/kg/injection, schedule: Q01DX009 (ip), vehicle: Klucel (hydroxypropylcellulose) (HPC).
Where [7] appears, read: dose: 100.0 mg/kg/injection, schedule: Q01DX009 (ip), vehicle: Klucel (hydroxypropylcellulose) (HPC).
Where [8] appears, read: dose: 200.0 mg/kg/injection, schedule: Q01DX009 (ip), vehicle: Klucel (hydroxypropylcellulose) (HPC).
The mark [9] stands for this setting: dose: 25.0 mg/kg/injection, schedule: Q01DX001 (ip), vehicle: saline with Tween-80.
Setting [10] is: dose: 50.0 mg/kg/injection, schedule: Q01DX001 (ip), vehicle: saline with Tween-80.
[11] abbreviates: dose: 50.0 mg/kg/injection, schedule: Q04DX003 (ip), vehicle: saline.
Setting [12] is: dose: 400.0 mg/kg/injection, schedule: Q04DX003 (ip), vehicle: saline.
Setting [13] is: dose: 100.0 mg/kg/injection, schedule: Q04DX003 (ip), vehicle: saline with Tween-80.
Setting [14] is: dose: 200.0 mg/kg/injection, schedule: Q04DX003 (ip), vehicle: saline with Tween-80.
[15] abbreviates: dose: 400.0 mg/kg/injection, schedule: Q04DX003 (ip), vehicle: saline with Tween-80.
Where [16] appears, read: dose: 50.0 mg/kg/injection, schedule: Q04DX003 (ip), vehicle: saline with Tween-80.

Consider `C[N+]1(C)N=C([O-])N(Cc2ccccc2)C1=O`, for which the T/C under setting [1] is 118 % of control and the T/C under setting [2] is 106 % of control.
For `COCC1(C)CCCC2(C)C3=C(CCC(OC)C3)CCC12` (configuration not stated), the T/C (dose: 100.0 mg/kg/injection, schedule: Q01DX001 (ip), vehicle: saline) was 99 % of control; the T/C (dose: 200.0 mg/kg/injection, schedule: Q01DX001 (ip), vehicle: saline) is 96 % of control; the T/C (dose: 400.0 mg/kg/injection, schedule: Q01DX001 (ip), vehicle: saline) was 93 % of control.
As for `ClCCCCCCOC1CCCCO1` (configuration not stated), the T/C runs as follows: under setting [3], 110 % of control; under setting [4], 106 % of control; under setting [5], 97 % of control.
For `CC(N)(CCC(=O)O)C(=O)O` (configuration not stated), the T/C was 98 % of control under setting [6]; 96 % of control under setting [7]; 97 % of control under setting [8]; 103 % of control (dose: 400.0 mg/kg/injection, schedule: Q01DX009 (ip), vehicle: Klucel (hydroxypropylcellulose) (HPC)).
In the case of `CCC(C)C[c-]1[c-][c-][c-][c-]1.[Cl][Zr][Cl].[c-]1[c-][c-][cH-][c-]1` (configuration not stated), the T/C (dose: 6.25 mg/kg/injection, schedule: Q04DX002 (ip), vehicle: saline) is 102 % of control; the T/C (dose: 12.5 mg/kg/injection, schedule: Q01DX001 (ip), vehicle: saline with Tween-80) is 100 % of control; the T/C (dose: 12.5 mg/kg/injection, schedule: Q04DX002 (ip), vehicle: saline) is 106 % of control; the T/C under setting [9] was 98 % of control; the T/C (dose: 25.0 mg/kg/injection, schedule: Q04DX002 (ip), vehicle: saline) was 100 % of control; the T/C under setting [10] is 97 % of control.
Regarding `COc1ccc2cc3n(cc-2c1=O)CCc1cc2c(cc1-3)OCO2`, the T/C (dose: 100.0 mg/kg/injection, schedule: Q04DX003 (ip), vehicle: water) was 160 % of control.
For the compound `CN=C(NC)c1cccc(NC(=O)/C=C\c2ccc(/C=C/C(=O)Nc3cccc(C(=NC)NC)c3)cc2)c1`, the T/C (dose: 1.56 mg/kg/injection, schedule: Q01DX005 (ip), vehicle: saline with Tween-80) is 121 % of control.
Turning to `O=C(Nc1cccc([N+](=O)[O-])c1)OCC#CCCl`, the T/C was 102 % of control (dose: 50.0 mg/kg/injection, schedule: Q01DX005 (ip), vehicle: saline + Tween-80 + alcohol); 101 % of control (dose: 100.0 mg/kg/injection, schedule: Q01DX005 (ip), vehicle: saline + Tween-80 + alcohol); 100 % of control (dose: 200.0 mg/kg/injection, schedule: Q01DX005 (ip), vehicle: saline + Tween-80 + alcohol).
Take `CC1=NN(C)C(=O)C1`: the T/C under setting [11] is 102 % of control, the T/C under setting [1] is 101 % of control, the T/C under setting [2] was 104 % of control and the T/C under setting [12] is 111 % of control.
In the case of `O=C1c2cccnc2C(=O)N1CCO`, the T/C is 95 % of control (dose: 50.0 mg/kg/injection, schedule: Q01DX005 (ip), vehicle: saline); 100 % of control (dose: 100.0 mg/kg/injection, schedule: Q01DX005 (ip), vehicle: saline); 101 % of control (dose: 200.0 mg/kg/injection, schedule: Q01DX005 (ip), vehicle: saline).
For `CN(/N=C/c1ccccc1O)C(=O)c1ccccc1N`, the T/C reads like this: under setting [3], 105 % of control; under setting [4], 107 % of control; under setting [5], 104 % of control.
Regarding `CCCCC/C(C=O)=C\c1ccccc1`, the T/C was 118 % of control under setting [13], 100 % of control under setting [14] and 109 % of control under setting [15].
In the case of `CCOP(O)(=S)OCC.[Fe]`, the T/C was 89 % of control under setting [9]; 96 % of control (dose: 33.0 mg/kg/injection, schedule: Q01DX001 (ip), vehicle: saline with Tween-80); 94 % of control under setting [10]; 97 % of control under setting [11]; 90 % of control and 95 % of control (dose: 75.0 mg/kg/injection, schedule: Q01DX001 (ip), vehicle: saline with Tween-80); 90 % of control (dose: 100.0 mg/kg/injection, schedule: Q01DX001 (ip), vehicle: saline with Tween-80). The T/C under setting [1] is 101 % of control, the T/C under setting [2] is 100 % of control and the T/C under setting [12] is 90 % of control.
As to `O=c1[nH]c2c(Cl)c(Cl)c(Cl)c(Cl)c2[nH]c1=O`, the T/C was 90 % of control (dose: 50.0 mg/kg/injection, schedule: Q01DX005 (ip), vehicle: saline with Tween-80) and 87 % of control (dose: 100.0 mg/kg/injection, schedule: Q01DX005 (ip), vehicle: saline with Tween-80).
As for `CCOP(=S)(N1CC1C)N1CC1C` (configuration not stated), the T/C under setting [3] is 120 % of control; the T/C (dose: 66.0 mg/kg/injection, schedule: Q04DX003 (ip), vehicle: saline with Tween-80) was 100 % of control; the T/C under setting [13] was 109 % of control.
In the case of `Fc1ccc(CSc2ncnc3nc[nH]c23)cc1`, the T/C runs as follows: under setting [4], 90 % of control; under setting [5], 100 % of control; (dose: 400.0 mg/kg/injection, schedule: Q01DX009 (ip), vehicle: saline with Tween-80) 100 % of control.
Consider `CC(SC(C)(C)C)C(=O)SC(C)(C)C` (configuration not stated), for which the T/C (dose: 100.0 mg/kg/injection, schedule: Q04DX003 (ip), vehicle: Klucel (hydroxypropylcellulose) (HPC)) is 102 % of control; the T/C (dose: 200.0 mg/kg/injection, schedule: Q04DX003 (ip), vehicle: Klucel (hydroxypropylcellulose) (HPC)) was 103 % of control; the T/C (dose: 400.0 mg/kg/injection, schedule: Q04DX003 (ip), vehicle: Klucel (hydroxypropylcellulose) (HPC)) is 105 % of control.
Consider `O=C(CCCCC(=O)N/N=C/c1cccc([N+](=O)[O-])c1)N/N=C/c1cccc([N+](=O)[O-])c1`, for which the T/C is, setting by setting: (dose: 60.0 mg/kg/injection, schedule: Q01DX005 (ip), vehicle: saline with Tween-80) 100 % of control; (dose: 120.0 mg/kg/injection, schedule: Q01DX005 (ip), vehicle: saline with Tween-80) 92 % of control; (dose: 240.0 mg/kg/injection, schedule: Q01DX005 (ip), vehicle: saline with Tween-80) 94 % of control.
Take `ClC(Cl)(Cl)SSC(=Nc1ccccc1)SSC(Cl)(Cl)Cl`: the T/C under setting [5] was 155 % of control.
In the case of `COc1ccc(CC(=O)C(=O)O)cc1OCc1ccccc1`, the T/C reads like this: under setting [16], 96 % of control; under setting [14], 101 % of control; under setting [15], 99 % of control.
For the compound `O=C(O)C[N-]CC(=O)O.OO.[O]=[V]`, the T/C is 102 % of control (dose: 3.75 mg/kg/injection, schedule: Q01DX005 (ip), vehicle: saline with Tween-80); 105 % of control (dose: 7.5 mg/kg/injection, schedule: Q01DX005 (ip), vehicle: saline with Tween-80); 112 % of control (dose: 15.0 mg/kg/injection, schedule: Q01DX005 (ip), vehicle: saline with Tween-80); 120 % of control (dose: 30.0 mg/kg/injection, schedule: Q01DX005 (ip), vehicle: saline with Tween-80).
Consider `CC1(C)NNC(=S)NC1=O`, for which the T/C under setting [6] was 99 % of control; the T/C under setting [3] was 100 % of control; the T/C under setting [7] was 97 % of control; the T/C under setting [4] is 113 % of control; the T/C under setting [8] is 94 % of control; the T/C under setting [5] was 97 % of control.
For `Oc1c(Cl)cc(Cl)cc1C=NCCSc1ccc(Cl)cc1`, the T/C was 99 % of control and 108 % of control and 111 % of control (dose: 50.0 mg/kg/injection, schedule: Q01DX005 (ip), vehicle: Klucel (hydroxypropylcellulose) (HPC)); 115 % of control (dose: 100.0 mg/kg/injection, schedule: Q01DX005 (ip), vehicle: DMSO); 105 % of control and 115 % of control and 93 % of control (dose: 100.0 mg/kg/injection, schedule: Q01DX005 (ip), vehicle: Klucel (hydroxypropylcellulose) (HPC)); 117 % of control (dose: 200.0 mg/kg/injection, schedule: Q01DX005 (ip), vehicle: DMSO); 118 % of control (dose: 400.0 mg/kg/injection, schedule: Q01DX005 (ip), vehicle: DMSO); 101 % of control and 120 % of control (dose: 400.0 mg/kg/injection, schedule: Q01DX005 (ip), vehicle: Klucel (hydroxypropylcellulose) (HPC)). Besides, the T/C (dose: 600.0 mg/kg/injection, schedule: Q01DX005 (ip), vehicle: DMSO) was 108 % of control.
Consider `O.O.[Cl][Pt+2][Cl].[NH-]C1CC2CCC1C2.[NH-]C1CC2CCC1C2` (configuration not stated), for which the T/C is, setting by setting: (dose: 33.0 mg/kg/injection, schedule: Q04DX003 (ip), vehicle: saline with Tween-80) 154 % of control; under setting [16], 150 % of control.
